Measured values from PubChem BioAssay AID651991 (The Scripps Research Institute Molecular Screening Center, 2013).
Activity calls are given as the source filed them.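 The calls were made as follows: active = CC50 at or below 10 µM in either panel, but not in both panels; inactive = the rest.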

Test: viability loss in HEK293T cells – cell-based, WST-1 absorbance, serum-free and serum medium, cytotoxicity control for LYPLA1/LYPLA2 inhibitor project, dose response (AID 651991)
Conditions: 48 h, with 10% FCS

| SMILES | CC50 |
| --- | --- |
| O=C(CN1CCN(C(=O)c2ccco2)CC1)Nc1cc(C(F)(F)F)ccc1Cl | > 50 µM (inactive) |
| COc1ccc(N2CCN(C(=O)c3cc4c(s3)-c3ccccc3S(=O)(=O)C4)CC2)cc1 | > 50 µM (inactive) |
| O=C(c1cc2c(s1)-c1ccccc1S(=O)(=O)C2)N1CCN(c2ccc(Cl)cc2)CC1 | > 50 µM (inactive) |
| O=C(CN1CCN(C(=O)c2ccco2)CC1)Nc1cc(Cl)ccc1Cl | > 50 µM (inactive) |

Same assay, conditions: 48 h, without serum

| SMILES | CC50 |
| --- | --- |
| O=C(CN1CCN(C(=O)c2ccco2)CC1)Nc1cc(C(F)(F)F)ccc1Cl | > 50 µM (inactive) |
| COc1ccc(N2CCN(C(=O)c3cc4c(s3)-c3ccccc3S(=O)(=O)C4)CC2)cc1 | > 50 µM (inactive) |
| O=C(c1cc2c(s1)-c1ccccc1S(=O)(=O)C2)N1CCN(c2ccc(Cl)cc2)CC1 | > 50 µM (inactive) |
| O=C(CN1CCN(C(=O)c2ccco2)CC1)Nc1cc(Cl)ccc1Cl | > 50 µM (inactive) |
